# Test results from patent US20160220464A1 (WUHAN OPTICS VALLEY BRIDGEBIOMED INTERNATIONAL CORPORATION, priority 2013, published 2016).
# Where two headings read alike, the source gives them in different places.
# Columns and labels:
# [1] = target: T1, BK B2 receptor (Homo sapiens, UniProt P30411); experiment: Relative amount of PG secretion in cell supernatant by enzyme immunoassay (EIA); format: cell-based; settings: 1 h, 1 μM BK set as 100%
# T1 construct: The cell strains used in the study were human primary vein endothelial cells (HPVEC) and human aortic smooth muscle cells (HASMC); endogenous in cells; host or cells: human primary vein endothelial cells (HPVEC) and human aortic smooth muscle cells (HASMC)
# T1 sequence (P30411 1-391): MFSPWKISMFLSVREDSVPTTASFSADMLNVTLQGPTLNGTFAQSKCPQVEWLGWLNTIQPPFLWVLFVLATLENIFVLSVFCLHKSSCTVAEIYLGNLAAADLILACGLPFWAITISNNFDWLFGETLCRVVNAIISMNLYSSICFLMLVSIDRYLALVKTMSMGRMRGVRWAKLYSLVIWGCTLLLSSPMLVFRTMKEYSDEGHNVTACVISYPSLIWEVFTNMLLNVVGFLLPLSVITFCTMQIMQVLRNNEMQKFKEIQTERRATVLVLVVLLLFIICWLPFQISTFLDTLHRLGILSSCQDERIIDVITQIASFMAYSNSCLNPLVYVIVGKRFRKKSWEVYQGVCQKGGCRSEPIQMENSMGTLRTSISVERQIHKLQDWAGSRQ
# Experimental: YLB-01, YLB-02 and YLB-03 were selected for the study as described below in Table 1, and BK was used as control. Implantation Two cell lines were transferred into T-75 cell culture flask, and then the instructions of PG kit were strictly followed when cells have reached the appropriate density. Day 1 Cells were seeded in 24 well dishes with minimum medium and allowed to adhere overnight. Day 2 Cells were starved in the serum-free conditioned medium. […] The supernatant was collected after incubation for later use. Day 4 24 well dishes were washed and then dyed for 45-90 min, and then the OD value was measured for analysis. […] In order to detect endogenous prostaglandin, enzyme immunoassay (EIA) was used to determine the amount of prostaglandin and subtypes thereof in the cell supernatant described above.
# [2] = tested on: human aortic smooth muscle cells (HASMC); experiment: PG subtype secretion by EIA in HASMC; format: cell-based; settings: 10 nM, 1 μM BK set as 100%
# [3] = tested on: human primary vein endothelial cells (HPVEC); experiment: PG subtype secretion by EIA in HPVEC; format: cell-based; settings: 10 nM, 1 μM BK set as 100%
# Experimental: In order to study of prostaglandin subtypes secretion triggered by activation of B2 receptor by these three compounds, human primary vein endothelial cells (HPVEC) and human aortic smooth muscle cells (HASMC) were used for PG secretion, following the same protocol above; 10 nM of these compounds, YLB-1, YLB-2, YLB-3 was added. […] These percentage values above were all calibrated with respect to bradykinin.
# [4] = target: T2, bradykinin (BK) B2 receptors (Homo sapiens, UniProt P30411); experiment: PG secretion by BK B2 receptor agonists (PG kit, OD), EC50 and Emax; format: cell-based; settings: HASMC; for Emax: relative to BK
# T2 construct: The cell strains used in the study were human primary vein endothelial cells (HPVEC) and human aortic smooth muscle cells (HASMC); endogenous in cells; host or cells: human primary vein endothelial cells (HPVEC) and human aortic smooth muscle cells (HASMC)
# T2 sequence (P30411 1-391): T1 sequence (P30411 1-391)
# Experimental: Implantation Two cell lines were transferred into T-75 cell culture flask, and then the instructions of PG kit were strictly followed when cells have reached the appropriate density. Day 1 Cells were seeded in 24 well dishes with minimum medium and allowed to adhere overnight. Day 2 Cells were starved in the serum-free conditioned medium. Day 3 Minimum medium were used, and YLB-01, YLB-02 and YLB-03 were added to the medium, in which the concentration was 0.1 nM, 1 nM, 10 nM, 30 nM, 100 nM, 300 nM, 1 μM, 3 μM and 10 μM, respectively; the cells were incubated at 37° C. for 1 h. The supernatant was collected after incubation for later use. Day 4 24 well dishes were washed and then dyed for 45-90 min, and then the OD value was measured for analysis. The cell strains used in the study were human primary vein endothelial cells (HPVEC) and human aortic smooth muscle cells (HASMC).
# [5] = tested on: human lower leg hair; experiment: Hair growth after topical 0.3% suspension on human lower leg; format: in vivo; settings: twice a day
# From the text: (§1) The B2 receptor agonist (YLB-01) suspension with 0.3% concentration was obtained for clinical use as described above. The suspension was applied to human lower leg twice a day, for 3 months; hair growth was observed. The treated areas were observed daily to monitor hair growth and side effects, e.g. swelling, pruritus, pain, etc. And the treated parts were photographed weekly.
# as §1, with “above and” for “above. The suspension”
# [6] = target: T3, B2 receptor (Homo sapiens, UniProt P30411); experiment: Relative PG secretion with B2 receptor inhibitor HOE-140; format: cell-based; settings: 1 μM BK set as 100%
# T3 construct: The cell strains used in the study were human primary vein endothelial cells (HPVEC) and human aortic smooth muscle cells (HASMC); endogenous in cells; host or cells: human primary vein endothelial cells (HPVEC) and human aortic smooth muscle cells (HASMC)
# T3 sequence (P30411 1-391): T1 sequence (P30411 1-391)
# Experimental: Two different cell lines were transferred into T-75 cell culture flask, and then the instructions of PG kit were strictly followed when cells have reached the appropriate density. Day 1. Cells were seeded in 24 well dishes with minimum medium and allowed to adhere overnight. Day 2. Cells were starved in the serum-free conditioned medium. Day 3. […] Cells were incubated at 37° C. for 1 h. The supernatant was collected after incubation for later use. Day 4. 24 well dishes were washed and then dyed for 45-90 min, and then the quantitative analysis was carried out.
smiles,measurement,setting,value
"CNC(=O)c1ccc(CCC(=O)NCC(=O)N(C)c2ccc(Cl)c(COc3cccc4c3nc(OC)n4Cc3ccccn3)c2Cl)cc1 [YLB-01, 4-(3-2-((2,4-dichloro-3-((2-methoxy-1-(pyridine-2ylmethyl)-1H-benzo[d]imidazol-4-yloxy)methyl)phenyl)(methyl)amino-2-oxoethylamino)-3-oxopropyl)-N-methylbenzamid]",activation at 0.0001 µM,[1]; 0.1 nM,0%
same,activation at 0.001 µM,[1]; 1 nM,7.69 ± 2.19%
same,activation at 0.01 µM,[1]; 10 nM,~50%
same,activation at 0.03 µM,[1]; 30 nM,53.7 ± 4.56%
same,activation at 0.1 µM,[1]; 100 nM,73.4 ± 2.7%
same,activation at 0.3 µM,[1]; 300 nM,83.8 ± 6.45%
same,activation at 1 µM,[1]; 1 μM,87 ± 3.76%
same,activation at 3 µM,[1]; 3 μM,87.8 ± 4.2%
same,activation at 10 µM,[1]; 10 μM,86.5 ± 7.44%
same,PGD2,[2],undetectable
same,PGE2,[2],34.64 ± 12.27%
same,PGF-2a,[2],5.68 ± 2.08%
same,PGD2,[3],undetectable
same,PGE2,[3],30.24 ± 5.40%
same,PGF-2a,[3],6.29 ± 1.01%
same,EC50,[4]; 1 h incubation at 37° C.,24.4 ± 3 nM
same,Emax,[4]; read-out: Emax,87%
same,Emax,[4],87.79 ± 4.2%
same,hair growth,[5]; 0 week,0 mm
same,hair growth,[5]; 2 weeks,4.89 ± 0.38 mm
same,hair growth,[5]; 3 weeks,6.82 ± 0.4 mm
same,hair growth,[5]; 4 weeks,9.61 ± 0.55 mm
same,"hair growth compared with control group (photos, FIG. 2)",[5]; 3 months,hairs grew more quickly than those in control group
same,"new hair growth in parts used to be bald (photos, FIG. 1)",[5]; 3 months,tiny new hairs grew out
same,Relative PG Secretion Amount with 1 μM HOE-140,[6]; agonist 0.1 nM + HOE-140 1 μM,1.54 ± 2.53%
same,Relative PG Secretion Amount with 1 μM HOE-140,[6]; agonist 1 nM + HOE-140 1 μM,4.21 ± 3.74%
same,Relative PG Secretion Amount with 1 μM HOE-140,[6]; agonist 10 nM + HOE-140 1 μM,4.17 ± 3.21%
same,Relative PG Secretion Amount with 1 μM HOE-140,[6]; agonist 30 nM + HOE-140 1 μM,2.86 ± 2.35%
same,Relative PG Secretion Amount with 1 μM HOE-140,[6]; agonist 100 nM + HOE-140 1 μM,3.44 ± 3.77%
same,Relative PG Secretion Amount with 1 μM HOE-140,[6]; agonist 300 nM + HOE-140 1 μM,0.45 ± 2.86%
same,Relative PG Secretion Amount with 1 μM HOE-140,[6]; agonist 1 μM + HOE-140 1 μM,3.66 ± 2.11%
same,Relative PG Secretion Amount with 1 μM HOE-140,[6]; agonist 3 μM + HOE-140 1 μM,6.98 ± 1.6%
same,Relative PG Secretion Amount with 1 μM HOE-140,[6]; agonist 10 μM + HOE-140 1 μM,40.32 ± 3.27%
